PubChem BioAssay (NCI)
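All cell lines were grown in 96-well plates and treated with compound for 48 hours. GI50 is the concentration that inhibits growth by half. TGI is the concentration that stops growth completely.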

Tests used:
Assay in all cases: NCI tumour cell line growth inhibition, 48 h
CAKI-1 renal = tested on: CAKI-1 renal
SF-539 CNS = tested on: SF-539 CNS
SR leukemia = tested on: SR leukemia
HT29 colon = tested on: HT29 colon
BT-549 breast = tested on: BT-549 breast
UACC-257 melanoma = tested on: UACC-257 melanoma
SK-MEL-2 melanoma = tested on: SK-MEL-2 melanoma
TK-10 renal = tested on: TK-10 renal
A549 NSCLC = tested on: A549 NSCLC
A498 renal = tested on: A498 renal

Row | SMILES | GI50 (CAKI-1 renal) | TGI (CAKI-1 renal) | GI50 (SF-539 CNS) | TGI (SF-539 CNS) | GI50 (SR leukemia) | TGI (SR leukemia) | GI50 (HT29 colon) | TGI (HT29 colon) | GI50 (BT-549 breast) | TGI (BT-549 breast) | GI50 (UACC-257 melanoma) | TGI (UACC-257 melanoma) | GI50 (SK-MEL-2 melanoma) | TGI (SK-MEL-2 melanoma) | GI50 (TK-10 renal) | TGI (TK-10 renal) | GI50 (A549 NSCLC) | TGI (A549 NSCLC) | GI50 (A498 renal) | TGI (A498 renal)
1 | CC(C)(C)CC(C)(C)c1ccc(OCCO)cc1 | 0.678 µg/mL | 8.37 µg/mL | 8.77 µg/mL | 19.5 µg/mL | 1.43 µg/mL | > 75 µg/mL | 10.6 µg/mL | 28.1 µg/mL | 2.49 µg/mL | 11.9 µg/mL | 2.39 µg/mL | 16.9 µg/mL | 8.07 µg/mL | 18.7 µg/mL | 10.6 µg/mL | 33 µg/mL | 9.04 µg/mL | > 75 µg/mL | 0.0423 µg/mL | 14.2 µg/mL
2 | COc1cccc2c1nc(C(F)F)n2-c1nc(-c2ccc(NS(=O)(=O)CCN(C)C)cc2)nc(N2CCOCC2)n1 | 0.168 µM | 4.69 µM | 0.197 µM | 2.63 µM | 0.319 µM | 3.87 µM | 0.0999 µM | 4.39 µM | 0.314 µM | 16 µM | 0.116 µM | 1.72 µM | 0.195 µM | 2.5 µM | 0.0597 µM | 0.615 µM | 0.174 µM | 4.33 µM | 0.0337 µM | 0.279 µM
3 | C=CC1(C)CCC2C(=CCC3C2(C)CC(O)C(O)C3(C)COC2OC(CO)C(O)C(O)C2O)C1 (configuration not stated) | – | > 100 µM | – | > 100 µM | – | > 100 µM | – | > 100 µM | – | > 100 µM | – | > 100 µM | – | > 100 µM | – | > 100 µM | – | > 100 µM | – | > 100 µM
4 | O=C(/C=C\c1ccc(O)c(O)c1)c1ccccc1O | 4.45 µM | 40 µM | 6.69 µM | 26.5 µM | 3.17 µM | 69.8 µM | 18.4 µM | 47.1 µM | 3.61 µM | 18.8 µM | 12.8 µM | 44 µM | 12 µM | 41.7 µM | 18.2 µM | > 100 µM | 17.1 µM | > 100 µM | 16 µM | 32.8 µM
5 | CS(=O)(=O)OCCN(CCOS(C)(=O)=O)c1ccc(C=Nc2ccc(-c3csc(COc4ccccc4)n3)cc2)cc1 | – | 4.18 µM | – | 14.7 µM | – | 15.5 µM | – | 23.6 µM | – | 37 µM | – | 28.3 µM | – | 37.3 µM | – | 12.5 µM | – | 32.1 µM | – | 7.48 µM
6 | CN1C(=O)C(c2c[nH]c3ccccc23)=C(c2c[nH]c3ccccc23)C1=O | 3.92 µM | 12.1 µM | 6.87 µM | > 25 µM | 7.14 µM | > 25 µM | 8.47 µM | > 25 µM | 8.14 µM | 24.7 µM | 7.65 µM | 24.8 µM | 5.26 µM | 13.4 µM | 12.5 µM | > 25 µM | 7.08 µM | > 25 µM | 3.55 µM | 17.2 µM
7 | Cc1c2cnccc2c(C)c2c1c1ccccc1n2CCOC(=O)c1ccccc1 | – | 28 µM | – | 20.9 µM | – | 45.9 µM | – | 54.1 µM | – | > 100 µM | – | 42 µM | – | 31.8 µM | – | 40.9 µM | – | 43.1 µM | – | 32.2 µM
8 | O=C1NC(=O)C(c2c[nH]c3ccccc23)=C1c1c[nH]c2ccccc12 | 7.37 µM | > 25 µM | 9.73 µM | > 25 µM | 6.87 µM | > 25 µM | 11.2 µM | > 25 µM | 10.3 µM | > 25 µM | 15.6 µM | > 25 µM | 12 µM | > 25 µM | 19.2 µM | > 25 µM | 10.7 µM | > 25 µM | 3.34 µM | > 25 µM
9 | O=P1(NCCCl)OCCCN1CCCl (configuration not stated) | – | 341 µM | – | 413 µM | – | > 500 µM | – | 448 µM | – | > 500 µM | – | 421 µM | – | 419 µM | – | > 500 µM | – | 434 µM | – | 462 µM
10 | CCCCn1c(=O)[nH]c(N)c([C@@H]2c3c([nH]c(=O)n(CCCC)c3=O)Oc3ccc4ccccc4c32)c1=O | 1.62 µM | 3.26 µM | 7.86 µM | 20.4 µM | 0.458 µM | 15.8 µM | 2.46 µM | 4.73 µM | 1.83 µM | 3.57 µM | 2.41 µM | 5.78 µM | 2.51 µM | 7.34 µM | 2.95 µM | 7.05 µM | 11.5 µM | 24.5 µM | 13.7 µM | 27.8 µM
11 | C/C(=C\C(=O)O[C@H]1[C@@H]2[C@H](C)CC[C@H]2[C@]2(C)O[C@@]1(C1CCCCC1)C[C@H]2OC(=O)CO)c1ccccc1 | 0.0235 µM | 5.01 µM | 7.1 µM | 13.2 µM | 6.87 µM | 15 µM | 6.47 µM | 13 µM | 0.12 µM | 4.21 µM | 6.96 µM | 13.3 µM | 7.05 µM | 13.4 µM | 7.6 µM | 14.7 µM | 6.61 µM | 12.4 µM | 0.0164 µM | 0.114 µM
12 | COC(=O)[C@@H](C)C[C@H](Cc1ccccc1)NC(=O)c1nc([C@@H](C[C@H](C(C)C)N(C)C(=O)[C@@H](NC(=O)[C@H]2C[C@H](O)CCN2C)C(C)C)OC(C)=O)sc1C(C)C | 0.115 µM | > 9.69 µM | 0.0159 µM | 0.0505 µM | 0.00126 µM | > 11.1 µM | 0.00377 µM | > 3.99 µM | 0.00416 µM | 0.131 µM | 5.89 µM | > 11.1 µM | 0.00318 µM | > 11.1 µM | 0.319 µM | > 11.1 µM | 0.0519 µM | > 11.1 µM | 0.00752 µM | 0.0881 µM
13 | CCC(=C(c1ccc(OCCN2CCCCC2)cc1)c1ccc(OCCN2CCCCC2)cc1)c1ccc(Cl)cc1 | 5.74 µM | > 16.7 µM | 2.55 µM | 5.02 µM | 0.425 µM | 1.27 µM | 0.762 µM | > 16.7 µM | > 16.7 µM | > 16.7 µM | 3.47 µM | 8.08 µM | 9.5 µM | > 16.7 µM | > 16.7 µM | > 16.7 µM | 7.42 µM | > 16.7 µM | > 16.7 µM | > 16.7 µM
14 | COc1cc2c(c3oc(-c4ccc(O)cc4)c(O)c(=O)c13)CCC(C)(C)O2 | 0.245 µM | 1.17 µM | 0.0241 µM | 0.0586 µM | 0.0773 µM | – | 3.12 µM | 10.9 µM | 0.279 µM | 0.836 µM | 0.291 µM | 0.778 µM | 0.326 µM | – | 0.5 µM | > 100 µM | 0.27 µM | 0.729 µM | 0.148 µM | 0.538 µM
15 | COc1cc(/C=C2\CC3C4CC=C5CC(OC(C)=O)CC[C@]5(C)C4CC[C@]3(C)C2=O)ccc1OCCN1CCCC1 (some centres not stated) | 13.1 µM | 27 µM | 3.63 µM | 9.82 µM | 0.708 µM | 2.87 µM | 0.646 µM | – | 14.7 µM | 38.3 µM | 2.09 µM | 4.2 µM | 6.99 µM | 23.7 µM | 7.25 µM | 19.6 µM | 7.98 µM | > 48.6 µM | 23.7 µM | 43.5 µM
16 | O=c1[nH]c2ccccc2n1C1CCNCC1 | > 100 µM | > 100 µM | > 100 µM | > 100 µM | > 100 µM | > 100 µM | > 100 µM | > 100 µM | > 100 µM | > 100 µM | > 100 µM | > 100 µM | > 100 µM | > 100 µM | > 100 µM | > 100 µM | > 100 µM | > 100 µM | 24.4 µM | > 100 µM
17 | COc1ccc(C2=NN(C(N)=S)C(c3ccc4c(c3)OCO4)C2)cc1 (configuration not stated) | 2.6 µM | 8.91 µM | 2.12 µM | 5.21 µM | 3.08 µM | 11.8 µM | 3.13 µM | > 100 µM | 2.89 µM | 20.5 µM | 3.96 µM | 68.5 µM | 3.12 µM | 38.9 µM | 2.47 µM | 9.54 µM | 3.19 µM | > 100 µM | 2.24 µM | 9.07 µM
18 | N#CC1=C(N)Oc2c(sc3c(Br)cccc23)C1c1ccc([N+](=O)[O-])cc1 (configuration not stated) | 0.0837 µM | 16.9 µM | 0.0619 µM | 0.475 µM | 0.048 µM | 6.45 µM | 0.297 µM | 3.2 µM | 0.319 µM | 5.31 µM | 11.4 µM | 27.5 µM | 0.294 µM | 17.5 µM | 2.32 µM | 20 µM | 0.177 µM | 13.5 µM | 0.0434 µM | 0.935 µM
19 | CC1CCCCCC(=O)c2c(O)cc(O)cc2CC(=O)O1 (configuration not stated) | – | > 100 µM | – | > 100 µM | – | > 100 µM | – | > 100 µM | – | > 100 µM | – | > 100 µM | – | > 100 µM | – | > 100 µM | – | > 100 µM | – | > 100 µM
20 | CC(=O)OCC1C(=O)OCC1C(=O)N1Cc2cc3ccccc3nc2C1 (configuration not stated) | – | 3.16 µM | – | 17.8 µM | – | 10.7 µM | – | 10.3 µM | – | 6.71 µM | – | 8.64 µM | – | 22.9 µM | – | 4.17 µM | – | 30.6 µM | – | 16.4 µM
